In a melting point compilation (Tetko et al.; mined from patent text by program, amines drawn as free bases though some values may be those of a salt):

SMILES | melting point
O=C1N(C(c2ccccc2)c2ccccc2)c2ccccc2C12COc1cc3c(cc12)CCCO3 (configuration not stated) | 208 to 211 °C
COC(=O)CCC(=O)c1ccc2c(c1)C(C)NC(=O)N2 (configuration not stated) | 142 to 150 °C
CC(=O)c1ccc(NC(=O)C(F)(F)F)nc1 | 147 to 149 °C
O=C1Cc2cc(NC(=O)C(=O)N3CCC(Oc4ccc(Cl)cc4)CC3)ccc2N1 | 194 to 196 °C
CCCCCCCCCCOC(=O)c1ccc(O)c(OC)c1 | 40 to 40.5 °C
[N-]=[N+]=Nc1ccc(Cl)cc1C(=O)c1ccccc1 | 81 to 83 °C
O=C1CCC(c2ccc3[nH]c(C(=O)O)cc3c2)=NN1 | 185 to 187 °C
CC(C)(C)Nc1c(Nc2ccc3ncccc3c2)c(=O)c1=O | 234 to 236 °C
Cc1cc(OC2SCC(O)C(O)C2O)cc(C)c1-c1ccncc1 (configuration not stated) | 106 to 107 °C
Cc1cc2ncc(-c3cccc(C(F)(F)F)c3)c(N)n2n1 | 176 °C
Cc1ccc(S(=O)(=O)N(C)c2ccc(S(C)(=O)=O)cc2C#N)cc1 | 179 to 180 °C
Cc1cc(C)nc(Oc2ccc([N+](=O)[O-])cc2)n1 | 108 to 110 °C
CS(=O)c1ccc(OCc2ccccc2)c(CCCc2ccc(C(=O)NCCO)cc2)c1 (configuration not stated) | 105 to 108 °C
Clc1ccn2ncc(Br)c2n1 | 173 to 174 °C
COc1ccc(C=CC(=O)c2c(O)cc(OC)cc2OC(C)C)cc1 | 113 °C
Cc1nc(C)c(Cl)c(NCc2nccc(SCCCSCCn3c([N+](=O)[O-])cnc3C)c2C)n1 | 145 to 147 °C
Cc1c(NC(=O)CC(CSC(=O)[C@@H](C)NC(=O)C2CCCCC2)c2ccccc2)cccc1C(=O)O (some centres not stated) | 175 to 180 °C
O=C(Nc1cccc(S(=O)(=O)NCc2cccnc2)c1)c1cnn2c(C(F)(F)F)cc(-c3ccc(C(F)(F)F)cc3)nc12 | 257 °C
COC(=O)C1=CCC(=NON)C=C1 | 170 to 172 °C
Nc1cc(C(=O)O)ccc1OCCCCCCc1cccc(O)c1O | 172 to 174 °C
CCCc1nnc(N2CCN(c3ccc(N4CC(CNC(C)=O)OC4=O)cc3F)CC2)s1 (configuration not stated) | 208 to 209 °C

Further lines, results first:

melting point | SMILES
176 to 178 °C | CCOC(=O)C(=CNCc1csnn1)C(=O)c1cc(F)c(F)cc1F
119 to 121 °C | Cc1oc2ccc(Br)cc2c(=O)c1-c1ccccc1
245 to 246 °C | CCn1cc(C(=O)O)c(=O)c2ccc(F)c(C)c21
88 to 90 °C | CCC(=O)n1c(=O)oc2ccccc21
115 to 117 °C | COC(=N)NC(=O)Nc1ccc(Cl)cc1
138 to 141 °C | Cc1ccc(CCC(CO)n2cnc(C(N)=O)c2)cc1 (configuration not stated)
301 to 303 °C | Cc1cn2c(=O)c(C(=O)O)cnc2c2cc([N+](=O)[O-])ccc12
128 to 130 °C | COCCn1c(C)nc2cnc3ccccc3c21
46 to 50 °C | O=C1NC(=O)C(SCCO)=C1SCCO
238 to 240 °C | CCc1cccc(CC)c1NC(=O)NC(c1ccccc1)c1ccccc1
158 to 160 °C | CCOC(=O)N1CCN(C(=O)Cn2sc3ccccc3c2=O)CC1
162 to 165 °C | Brc1ccc(OCCc2c[nH]cn2)cc1
158 to 160 °C | CCOC(=O)c1cnc2n(c1=O)CCc1cc(OC)ccc1-2
136 to 137 °C | COc1ccc(-c2nn(CC=Cc3ccccc3)c(=O)cc2-c2ccccc2)cc1
260 to 265 °C | CCC12CCC(=O)C=C1c1c(cc(O)c(Cl)c1Cl)C2 (configuration not stated)
53.9 to 55.5 °C | FC(F)(F)Oc1ccc(C2=CCC3(CC2)OCCO3)cc1
188 to 190 °C | NC(=S)Nc1ccc(F)cc1-c1ccccc1
225 to 232 °C | Cn1c2c(c3ccccc31)C(=O)C(=Cc1c[nH]cn1)CC2
206 to 207 °C | CC(C)(C)Sc1c(CC(C)(C)C(=O)O)n(Cc2ccc(Cl)cc2)c2ccc(OCc3cccc(Cl)n3)cc12
81 to 83 °C | COc1ccc2[nH]c3c(c2c1)C(C(=O)OCc1ccccc1)CCC3 (configuration not stated)
71 to 73 °C | Cc1sccc1C(=O)O
